Assay [1] has as its target T1, human TLR2 (Pam2CSK4, TLR2/6 agonist) in HEK-Blue hTLR2 cells (Homo sapiens, UniProt O60603).
T1 construct: host or cells: HEK-Blue hTLR2 (HEK-293)
In words: HEK-Blue hTLR2 antagonism assay (SEAP reporter) with Pam2CSK4 as agonist. It counts as cell-based. Conditions: 2 h compound pre-incubation, approx. 3×EC50 Pam2CSK4, 18 h, SEAP OD 655 nm, background subtracted. The method, then:
(§1) Synthetic diacylated lipoprotein (Pam2CSK4, TLR2/6 agonist) and synthetic triacylated lipoprotein (Pam3CSK4, TLR1/2 agonist) were obtained from InvivoGen and were dissolved in endotoxin-free water to a concentration 1 mg/mL, vortexed until complete solubilization, and stored in aliquots at −20° C. Prior to addition to cells, an aliquot of the dissolved ligand was vortexed shortly and then was diluted in medium to 25 ng/mL Pam2CSK4 or 1000 ng/mL Pam3CSK4. The EC50 of the agonists for each assay run was determined by using 3-fold dilutions of each agonist from the following starting concentrations: 5 ng/mL for Pam2CSK4, and 200 ng/mL for Pam3CSK4.
(§2) Test compounds were solubilized fresh to 10-20 mM stocks in DMSO and sonicated for 5-10 minutes in a water bath sonicator. Serial dilutions were prepared in DMSO, and then diluted in medium. The final concentration of DMSO used in the assay was 1%.
(§3) HEK-Blue hTLR2 reporter cells (InvivoGen) are HEK-293 cells stably expressing both the human TLR2 gene and a secreted embryonic alkaline phosphatase (SEAP) reporter construct downstream of NFκB promotor sites. HEK-Blue hTLR2 reporters were cultured according to manufacturer's protocol using Dulbecco's Modified Eagle Medium (DMEM; Gibco) containing 1× GlutaMax (Gibco), 10% heat-inactivated Fetal Bovine Serum (Gibco), Pen-Strep (50 U/mL penicillin, 50 μg/mL streptomycin, Gibco), 100 μg/mL Normocin (InvivoGen), and the selective antibiotic, 1× HEK-Blue Selection (InvivoGen). Quanti-Blue reagent (InvivoGen) for detection and quantification of secreted alkaline phosphatase was dissolved in 100 mL of endotoxin-free water, warmed to 37° C. for 30 minutes and then filtered using a 0.2 μm membrane.
(§4) On day 1, 50 μL of each test compound dilution in duplicates or a vehicle control was added to each well of a 96-well plate followed by addition of 150 μL of HEK-Blue hTLR2 cell suspension (1×10^5 cells/well) and incubated at 37° C./5% CO2 for 2 h. Next, 50 μL of an approximate 3×EC50 concentration of each agonist (Pam2CSK4 or Pam3CSK4) was added to the wells containing test compounds or the vehicle control. The plates were then incubated at 37° C./5% CO2 for 18 h. For each assay run, non-treated HEK-Blue hTLR2 cells were treated with serial dilutions of agonists to determine EC50 values for the respective run.
(§5) On day 2, secreted alkaline phosphatase (SEAP) activity was detected in cell culture supernatants. In brief, 20 μL was collected from each well and transferred to a 96-well plate. Next, 200 μL of Quanti-Blue detection reagent was added to each well. Plates were incubated at room temperature for 15 min and SEAP activity was assessed by spectrophotometer OD reading at 655 nm. […] The activities of the compounds against Pam2CSK4 and Pam3CSK4 are presented as IC50 values for the response from cells treated with agonists with the background signal subtracted.

The target in assay [2] is T2, human TLR2 (Pam3CSK4, TLR1/2 agonist) in HEK-Blue hTLR2 cells (Homo sapiens, UniProt O60603).
T2 construct: host or cells: HEK-Blue hTLR2 (HEK-293)
T2 sequence (O60603 19-784 limits assumed): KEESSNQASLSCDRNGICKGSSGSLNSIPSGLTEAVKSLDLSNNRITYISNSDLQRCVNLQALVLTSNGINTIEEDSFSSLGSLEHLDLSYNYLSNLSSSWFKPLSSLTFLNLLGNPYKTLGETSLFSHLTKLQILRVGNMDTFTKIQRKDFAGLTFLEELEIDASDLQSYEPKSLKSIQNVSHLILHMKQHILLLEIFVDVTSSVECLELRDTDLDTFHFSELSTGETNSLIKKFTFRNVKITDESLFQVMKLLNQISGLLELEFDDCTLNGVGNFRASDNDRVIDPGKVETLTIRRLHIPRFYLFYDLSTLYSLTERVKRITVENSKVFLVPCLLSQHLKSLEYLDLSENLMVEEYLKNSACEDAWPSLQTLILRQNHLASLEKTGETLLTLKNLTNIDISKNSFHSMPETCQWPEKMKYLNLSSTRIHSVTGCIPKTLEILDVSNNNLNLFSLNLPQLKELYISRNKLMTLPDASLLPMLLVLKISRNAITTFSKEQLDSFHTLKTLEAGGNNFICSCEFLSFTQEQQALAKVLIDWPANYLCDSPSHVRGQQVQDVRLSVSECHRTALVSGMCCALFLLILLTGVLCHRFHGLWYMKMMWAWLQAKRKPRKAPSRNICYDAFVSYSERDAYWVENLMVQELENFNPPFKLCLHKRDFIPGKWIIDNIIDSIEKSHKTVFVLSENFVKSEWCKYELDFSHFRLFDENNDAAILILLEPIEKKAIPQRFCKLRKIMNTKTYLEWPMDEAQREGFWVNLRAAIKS
Description: HEK-Blue hTLR2 antagonism assay (SEAP reporter) with Pam3CSK4 as agonist. It is filed as cell-based. The following applies: 2 h compound pre-incubation, approx. 3×EC50 Pam3CSK4, 18 h, SEAP OD 655 nm, background subtracted. The method, then: as §1, §2, §3, §4, §5

Broadly, the IC50 is the concentration that inhibits the measured activity by half. A high value points to weaker potency in that assay.

Molecules are shown by their SMILES.

T1 sequence (O60603 19-784 limits assumed): as above

With `O=Cc1c(O)cc(/C=C/c2ccc(N3CCCC3)cc2)cc1F` [compound 53, (E)-2-fluoro-6-hydroxy-4-(4-(pyrrolidin-1-yl)styryl)benzaldehyde], the IC50 in assay [1] came to 1.3 µM; in assay [2], 1.5 µM.

Regarding `O=Cc1cc(/C=C/c2ccccn2)ccc1O` [compound 24, (E)-2-hydroxy-5-(2-(pyridin-2-yl)vinyl)benzaldehyde], the IC50 in assay [1] and in assay [2] was more than 100 µM each time.

Take `COc1cc(/C=C/c2ccccn2)cc(C=O)c1O` [compound 23, (E)-2-hydroxy-3-methoxy-5-(2-(pyridin-2-yl)vinyl)benzaldehyde]: the IC50 was 11.8 µM in assay [1] and 11.5 µM in assay [2].

`Oc1c(F)cc(/C=C/c2ccc(N3CCCC3)cc2)cc1/C=N/N1CCNCC1` [compound 96]: the IC50 was 3.2 µM in assay [1] and 1.3 µM in assay [2].

On to `COc1cc(/C=C/c2ccc3ccccc3c2)cc(C=O)c1O` [compound 32, (E)-2-hydroxy-3-methoxy-5-(2-(naphthalen-2-yl)vinyl)benzaldehyde], for which the IC50 is 1.1 µM in assay [1] and 1 µM in assay [2].

In the case of `COc1cc(/C=C/c2ccncc2)cc(C=O)c1O` [compound 25, (E)-2-hydroxy-3-methoxy-5-(2-(pyridin-4-yl)vinyl)benzaldehyde], the IC50 amounted to 15.2 µM in assay [1] and 16.4 µM in assay [2].

Take `O=C1CN(/N=C/c2cc(/C=C/c3ccc(N4CCCC4)cc3)cc(F)c2O)C(=O)N1` [compound 88, 1-(((E)-3-fluoro-2-hydroxy-5-((E)-4-(pyrrolidin-1-yl)styryl)benzylidene)amino)imidazolidine-2,4-dione]: the results for the IC50 in assay [1] and in assay [2] were 11.2 µM and 7.9 µM, respectively.

`COc1cc(/C=C/C(=O)c2ccccc2)cc(C=O)c1O` [compound 33, (E)-2-hydroxy-3-methoxy-5-(3-oxo-3-phenylprop-1-en-1-yl)benzaldehyde]: the results for the IC50 in assay [1] and in assay [2] were 6.2 µM and 6.4 µM, respectively.

For `COc1cc(/C=C/C2CCN(C(=O)OC(C)(C)C)CC2)cc(C=O)c1O` [compound 27, tert-butyl (E)-4-(3-formyl-4-hydroxy-5-methoxystyryl)piperidine-1-carboxylate], the IC50 worked out at 4.4 µM in assay [1] and 7.7 µM in assay [2].

As to `O=Cc1cc(/C=C/c2ccc(-n3cccn3)cc2)cc(F)c1O` [compound 57, (E)-5-(4-(1H-pyrazol-1-yl)styryl)-3-fluoro-2-hydroxybenzaldehyde], the concentration for half-maximal inhibition (IC50) was determined as 1.7 µM in assay [1] and 1.9 µM in assay [2].

In the case of `O=Cc1cc(/C=C/c2ccc(N3CCCC3)cn2)cc(F)c1O` [compound 87, (E)-3-fluoro-2-hydroxy-5-(2-(5-(pyrrolidin-1-yl)pyridin-2-yl)vinyl)benzaldehyde], the results for the IC50 in assay [1] and in assay [2] were 3.9 µM and 3.3 µM, respectively.

`COc1cc(/C=C/c2cccc(C(F)(F)F)c2)cc(C=O)c1O` [compound 2, (E)-2-hydroxy-3-methoxy-5-(3-(trifluoromethyl)styryl)benzaldehyde]: the IC50 in assay [1] is 5.3 µM; in assay [2], 1.4 µM.

Take `O=C(N/N=C/c1cc(/C=C/c2ccc(N3CCCC3)cc2)cc(F)c1O)c1ccccc1` [compound 80, N′-((E)-3-fluoro-2-hydroxy-5-((E)-4-(pyrrolidin-1-yl)styryl)benzylidene)benzohydrazide]: the IC50 in assay [1] is 28.4 µM; in assay [2] it was 14.8 µM.

Consider `O=Cc1cc(/C=C/c2cccc(N3CCOCC3)c2)cc(F)c1O` [compound 45, (E)-3-fluoro-2-hydroxy-5-(3-morpholinostyryl)benzaldehyde], for which the IC50 in assay [1] stood at 5 µM; in assay [2], 6.7 µM.

For `COc1ccc(/C=C/c2cc(C=O)c(O)c(OC)c2)cc1` [compound 1, (E)-2-hydroxy-3-methoxy-5-(4-methoxystyryl)benzaldehyde], the IC50 in assay [1] came out at 3.2 µM; in assay [2], 1.7 µM.

As for `COc1cc(/C=C/c2ccc(F)cc2F)cc(C=O)c1O` [compound 6, (E)-5-(2,4-difluorostyryl)-2-hydroxy-3-methoxybenzaldehyde], the IC50 in assay [1] was 2.5 µM; in assay [2], 2.3 µM.

With `Oc1c(F)cc(/C=C/c2ccc(N3CCCC3)cc2)cc1C1OCCCO1` [compound 75, (E)-2-(1,3-dioxan-2-yl)-6-fluoro-4-(4-(pyrrolidin-1-yl)styryl)phenol], the IC50 in assay [1] came to 1.2 µM; in assay [2], 1.3 µM.

With `Oc1c(F)cc(/C=C/c2ccc(N3CCCC3)cc2)cc1/C=N/N1CCOCC1` [compound 94, 2-fluoro-6-((E)-(morpholinoimino)methyl)-4-((E)-4-(pyrrolidin-1-yl)styryl)phenol], the IC50 in assay [1] is 2.9 µM; in assay [2], 1.4 µM.

Consider `O=Cc1cc(/C=C/c2ccc(N3CCOCC3)cc2)cc(F)c1O` [compound 42, (E)-3-fluoro-2-hydroxy-5-(4-morpholinostyryl)benzaldehyde], for which the IC50 in assay [1] worked out at 3.4 µM; in assay [2], 4.5 µM.

`CC(=O)N1CCc2sc(-c3cc(F)c(O)c(C=O)c3)cc2C1` [compound 19, 5-(5-acetyl-4,5,6,7-tetrahydrothieno[3,2-c]pyridin-2-yl)-3-fluoro-2-hydroxybenzaldehyde]: the IC50 in assay [1] amounted to 26.7 µM; in assay [2] it was 38.1 µM.

Consider `COc1cc(/C=C/c2ccc(N3CCCCC3)cc2)cc(C=O)c1O` [compound 69, (E)-2-hydroxy-3-methoxy-5-(4-(piperidin-1-yl)styryl)benzaldehyde], for which the IC50 in assay [1] stood at 0.7 µM; in assay [2], 0.6 µM.

On to `O=Cc1cc(/C=C/c2ccc(N3CCCCC3)cc2)cc(F)c1O` [compound 70, (E)-3-fluoro-2-hydroxy-5-(4-(piperidin-1-yl)styryl)benzaldehyde], for which the IC50 was 0.9 µM in assay [1] and 0.4 µM in assay [2].

Take `O=Cc1cc(/C=C/c2ccc(N3CCCC3)cc2)cc(F)c1O` [Example 49a, (E)-3-fluoro-2-hydroxy-5-(4-(pyrrolidin-1-yl)styryl)benzaldehyde]: the IC50 was determined as 0.5 µM in assay [1] and 0.6 µM in assay [2].

Take `COc1cc(-c2cc3c(s2)CCN(CC2CC2)C3)cc(C=O)c1O` [compound 17, 5-(5-(cyclopropylmethyl)-4,5,6,7-tetrahydrothieno[3,2-c]pyridin-2-yl)-2-hydroxy-3-methoxybenzaldehyde]: the IC50 in assay [1] worked out at 2 µM; in assay [2], 2.1 µM.

As for `COc1cc(/C=C/c2cc(F)cc(F)c2)cc(C=O)c1O` [compound 5, (E)-5-(3,5-difluorostyryl)-2-hydroxy-3-methoxybenzaldehyde], the IC50 is 4 µM in assay [1] and 3.2 µM in assay [2].

As for `COc1ccc(/C=C/c2cc(F)c(O)c(C=O)c2)cc1` [compound 10, (E)-3-fluoro-2-hydroxy-5-(4-methoxystyryl)benzaldehyde], the results for the IC50 in assay [1] and in assay [2] were 4.6 µM and 3.8 µM, respectively.

`O=Cc1cc(/C=C/c2ccncc2)cc(F)c1O` [compound 30, (E)-3-fluoro-2-hydroxy-5-(2-(pyridin-4-yl)vinyl)benzaldehyde]: the values for the IC50 in assay [1] and in assay [2] were 20.6 µM and 18.8 µM, respectively.

For `Oc1c(F)cc(/C=C/c2ccc(N3CCCC3)cc2)cc1/C=N/N1CCN(C2CC2)CC1` [compound 92, 2-((E)-((4-cyclopropylpiperazin-1-yl)imino)methyl)-6-fluoro-4-((E)-4-(pyrrolidin-1-yl)styryl)phenol], the IC50 in assay [1] was determined as 26.6 µM; in assay [2] it was 32.3 µM.

Consider `COCCOc1ccc(/C=C/c2cc(F)c(O)c(C=O)c2)cc1` [compound 55, (E)-3-fluoro-2-hydroxy-5-(4-(2-methoxyethoxy)styryl)benzaldehyde], for which the IC50 came out at 3.6 µM in assay [1] and 4.1 µM in assay [2].

For `N=C(N)N/N=C/c1cc(/C=C/c2ccc(N3CCCC3)cc2)cc(F)c1O` [compound 83, 2-((E)-3-fluoro-2-hydroxy-5-((E)-4-(pyrrolidin-1-yl)styryl)benzylidene)hydrazine-1-carboximidamide], the 50% inhibitory concentration (IC50) in assay [1] was 36.7 µM; in assay [2], 88.9 µM.

The record behind these values is patent publication US11345713B2, “Compounds as modulators of TLR2 signaling” (Neuropore Therapies, inc., priority 2018, dated 2022).
